The values that follow are results of earlier work, collected in patent publication US20150246043A1, “ORAL DOSAGE FORMS FOR MODIFIED RELEASE COMPRISING RUXOLITINIB” (ratiopharm GmbH, priority 2012, published 2015).

The conditions of data set [1]: reported for Ruxolitinib and especially its pharmaceutically acceptable salts like the phosphate salt (WO 2008/157208).
The conditions of data set [2]: class I = high permeability, high solubility.

For `N#CC[C@H](C1CCCC1)n1cc(-c2ncnc3[nH]ccc23)cn1` [Ruxolitinib, (3R)-3-cyclopentyl-3-[4-(7H-pyrrolo[2,3-d]pyrimidin-4-yl)pyrazol-1-yl]propanenitrile], the aqueous solubility result in data set [1] is “very high”. Also, in data set [2], the “Biopharmaceutics Classification System class” value is “class I”.
